# Patent publication US10987324B2, “Methods and compositions for the treatment of seizure-related disorders” (Adamas Pharmaceuticals, Inc., priority 2015, dated 2021)
# Read-outs that look alike come from different tables or passages of the source.
# Key:
# [1] = PK phase, single IV or PO dose of lacosamide in mice (Example 12); type: in vivo, male CD-1 mice; details: male, CD-1, mouse, plasma
# Source text: For the PK phase, male CD-1 mice were assigned to treatment groups according to the study design in Table Ex 12 below. IV dosing was done via tail vein injection and oral delivery was done with oral gavage tube.
# [2] = system: motor coordination in mice; test: Rotarod test in mice, PD phase (Example 12); type: in vivo
# Description: The rotarod (Ugo Basile, […]) is a device that allows for quantitative measurement of motor coordination in rodents. Animals are pre-trained prior to testing on the rotarod.
# 24 hours prior to the test day, mice are trained to run on the accelerating rotarod for at least 120 s in two consecutive trials. The mice are given up to 12 trials to achieve this performance criterion. Any mice not meeting this criterion are excluded from the test study.
# Mice are randomized to treatment groups (vehicle; IV: 3, 10 30 mg/kg; PO: 10, 30, 90 mg/kg). On the day of the test, the animals are dosed with test article and placed on the rotarod 5 minutes post-dosing. The rotarod is accelerated from 0-40 rpm over a 5 minute session, using the built-in function of the equipment. The rotarod test is repeated for each mouse at 15, 30 and 60 minutes post-drug administration. Animals that stay on the rotarod are assigned a run-time of 300 seconds. The time that each animal stays on the rotarod prior to falling is automatically recorded as the animal's fall latency.
# The latency to fall time on the rotarod recorded for each animal is reported at each time point post-dose. Latency to fall is averaged (±SEM) across the 10 animals in each treatment group at each time point.
# [3] = system: motor coordination in rats; test: Rotarod, IR vs ER subcutaneous infusion profile in rats (Example 14); type: in vivo; details: at Cmax
# Description: The example investigates reducing the rate of rise of plasma concentrations with the ER profile compared to the IR profile results in reduced CNS impairment. CNS side effects are measured as an impairment of motor coordination in rodents using the rotarod. Performance of rodents in a battery of neurobehavioral tests conducted during the infusion period are used as secondary endpoints as measures of CNS impairment.
# The infusion protocols are designed to produce pharmacokinetic profiles of lacosamide similar to that of IR lacosamide administered twice-a-day (BID) to humans (IR profile) or an extended release profile administered once-a-day (QD) to humans (ER profile) at varying doses administered as IR BID or ER QD.
# Rats are pre-trained on the rotarod prior to testing and assigned to groups based on their body weights.
# Following the period of acclimation, rats are surgically implanted with subcutaneous programmable pumps (iPRECIO), per the manufacturer's instructions. […]
# On the test day at the specified time point, rats are placed on the rotarod and the rotarod is accelerated from 0-40 rpm over a 5 minute session, using the built-in function of the equipment. […] The time that each animal stays on the rotarod prior to falling is automatically recorded as the animal's fall latency. […]
# [4] = Lacosamide plasma pharmacokinetics, ER infusion vs IP bolus in rats (Example 15); type: in vivo; details: for Slope (rate of rise of plasma concentration): from initiation of drug administration; for Tmax: read-out: median Tmax; for AUC(0-t): read-out: AUC0-18
# [5] = system: motor coordination in rats; test: Rotarod, ER profile vs IR profile of lacosamide in rats (Example 15); type: in vivo
# Description: (§1) It is hypothesized that reducing the rate of rise of plasma concentrations with the ER profile compared to the IR profile results in reduced CNS impairment. CNS side effects were measured as an impairment of motor coordination in rodents using the rotarod. The rotarod (Ugo Basile, Italy) is a device that allows for quantitative measurement of motor coordination in rodents. Animals experiencing CNS side effects such as dizziness would fall off the rotarod faster than normal animals.
# (§2) An acceleration protocol was used for training and test sessions, wherein the rotarod was accelerated from 0-40 rpm over a 5 minute session. All rats were then surgically implanted subcutaneously with programmable pumps (iPRECIO, Durect Corporation, Cupertino, Calif.), per the manufacturer's instructions, under anesthesia and using aseptic techniques.
# Three days following pump implantation surgery, all rats were tested on the rotarod to obtain baseline performance values. Rats were assigned to treatment groups such that the mean time spent on the rotarod was similar for each group. Four groups of rats were utilized in this study, with 8-10 rats per group:
# The total pump infusion duration was 18 hours. Control animals (group 1) were infused with vehicle (20% N-methyl-2-pyrrolidone, NMP) using the same infusion protocol. […] Control animals (group 3) were implanted with pumps containing vehicle and were given an IP bolus of vehicle.
# Immediately following the 18 hour pump infusion for the ER groups, or 1 hour after IP injection for the IR groups, rats were placed on the rotarod and the rotarod was accelerated from 0-40 rpm over a 5 minute session, using the built-in function of the equipment. Animals that stayed on the rotarod for the entire session were assigned a run-time of 300 seconds. The time that each animal stayed on the rotarod prior to falling was automatically recorded.
# [6] = cited from earlier work
# [7] = aqueous systems; cited from earlier work
# [8] = Brivaracetam plasma pharmacokinetics, ER infusion vs IP bolus in rats (Example 16); type: in vivo; details: PK satellite rats
# Description: To reproduce the plasma profile of ER brivaracetam (ER profile, group 2), rats are administered brivaracetam as a continuous infusion into the intraperitoneal (IP) space. […] Control animals (group 1) are infused with vehicle using the same infusion protocol. […] Control animals (group 3) were implanted with pumps containing vehicle and were given an IP bolus of vehicle.
# In order to fully elucidate the plasma concentration-time profile of brivaracetam administered by the ER and IR protocols, two groups of PK satellite rats are administered brivaracetam using identical protocols to groups 2 and 4 above to reproduce the ER and IR profiles, respectively. Blood is collected at varying time points and the plasma brivaracetam concentrations are determined. No rotarod testing is performed on the PK satellite rats.
# [9] = system: motor coordination in rats; test: Rotarod, ER profile vs IR profile of brivaracetam in rats (Example 16); type: in vivo
# Description: as §1, with “The primary objective of this study is to compare the CNS side effects of brivaracetam when delivered as a continuous infusion to rats to simulate an extended release (ER) plasma profile or as a bolus to simulate an immediate release (IR) plasma profile. It is” for “It is”, “side effects are measured as” for “side effects were measured as”
# as §2, with “is” for “was”, “are” for “were”
# Three days following pump implantation surgery, all rats are tested on the rotarod to obtain baseline performance values. […]
# Animals that stay on the rotarod for the entire session are assigned a run-time of 300 seconds. The time that each animal stays on the rotarod prior to falling is automatically recorded. […]
smiles,measurement,setting,value
"COC[C@@H](NC(C)=O)C(=O)NCc1ccccc1 [lacosamide, R-2-acetamido-N-benzyl-3-methoxypropionamide]",Cmax,[1]; 90 mg/kg oral dose,~40000 ng/mL
same,Tmax,[1]; IV route,< 5 min
same,Tmax,[1]; oral route,~15 min
same,Cmax,[1]; single 10 mg/kg IV dose,~15000 ng/mL
same,Cmax,[1]; single 30 mg/kg IV dose,~40000 ng/mL
same,Cmax,[1]; single 30 mg/kg oral dose,~15000 ng/mL
same,"latency to fall, PO compared to IV",[2]; doses with equivalent Cmax but different Tmax (e.g. 30 mg/kg IV and 90 mg/kg PO),greater latency to fall on the rotarod (less impairment)
same,effect of an increase in dose on latency to fall,[2]; same route of administration (IV or PO),decrease in the latency to fall time on the rotarod
same,"time spent on the rotarod, IR profile compared to ER group",[3]; given dose level,significantly reduced time spent on the rotarod (i.e. greater impairment)
same,time spent on the rotarod vs dose,"[3]; given infusion protocol, 400 vs 800 mg/day HED",decrease in a dose-dependent manner
same,Slope (rate of rise of plasma concentration),[4]; Group 2 (ER),1.4 µg/mL/h
same,Slope (rate of rise of plasma concentration),[4]; Group 4 (IR),62 µg/mL/h
same,reduction in the rate of the rise (slope) ER compared to IR,[4]; PK satellite rats,98%
same,Tmax,"[4]; rat, plasma, 19 mg/kg, IP bolus, IR profile (Group 4), PK satellite rats",45 min
same,concentration at 1 h,"[4]; rat, plasma, intraperitoneal, 19 mg/kg, group 4 (IR profile)",~19000 ng/mL
same,concentration at 18 h,"[4]; rat, plasma, intraperitoneal, 122 mg/kg, group 2 (ER profile)",~19000 ng/mL
same,Cmax,"[4]; rat, plasma, ip, 19 mg/kg, Group 4 (IR), PK satellite rats",22000 ng/mL
same,AUC(0-t),"[4]; rat, plasma, ip, 19 mg/kg, Group 4 (IR)",18 µg·h/mL
same,Tmax,"[4]; rat, plasma, ip, 122 mg/kg, ER infusion protocol (Group 2), PK satellite rats",900 min
same,AUC(0-t),"[4]; rat, plasma, ip, 122 mg/kg, Group 2 (ER), 18 hour infusion",217 µg·h/mL
same,Cmax,"[4]; rat, plasma, ip, 122 mg/kg, Group 2 (ER), PK satellite rats",19000 ng/mL
same,percent change from baseline in time on the rotarod vs vehicle,"[5]; ER groups, p>0.05",not statistically different
same,increase in time on the rotarod from baseline,"[5]; ER profile (group 2), vehicle 27% increase",45%
same,reduction in time on the rotarod from baseline,"[5]; IR profile, IP bolus (group 4), vehicle 54% increase",55%
same,elimination / plasma / pharmacokinetic half-life,[6]; human,about 13 hours
same,effect of CYP2C19 polymorphism on the pharmacokinetics,[6]; in vivo,no significant effect
same,solubility,[7],about 20 mg/ml
"CCC[C@@H]1CC(=O)N([C@@H](CC)C(N)=O)C1 [brivaracetam, (2S)-2-[(4R)-2-oxo-4-propylpyrrolidin-1-yl]butanamide]","rate of rise of plasma concentration, ER profile as % of IR profile",[8],< 10%
same,change from baseline in time on the rotarod vs vehicle,[9]; ER profile,not different between brivaracetam treated and vehicle animals
same,change in time on the rotarod vs vehicle,"[9]; IR profile, IP bolus",greater reduction in time on the rotarod than matched vehicle controls
same,elimination / plasma / pharmacokinetic half-life,[6]; human,420 to 480 min
same,fraction of dose unchanged in urine,[6]; in vivo,5-8%
same,Tmax,"[6]; oral dosing, human",approximately 2 hours
